Laboratory results as given in patent publication US7998460B2, “Prevention of deficits in neurogenesis with anti-inflammatory agents” (The Board of Trustees of the Leland Stanford Junior …, priority 2003, dated 2011).

Key:
[1] = Sickness behavior after LPS in rats; format: in vivo, rat; settings: LPS 1 mg/Kg i.p. one time
Description: LPS exposure. Bacterial lipopolysaccharide (LPS, Sigma, St Louis, Mo.) was administered in sterile saline by intraperitoneal injection at a dose of 1 mg/Kg one time. This caused mild sickness behavior (decreased grooming, decreased locomotor activity, increased piloerection) for approximately 2 days, resolving by the 3rd day. The dose of LPS chosen causes mild sickness behavior in rats that resolves within 1-2 days; the dose of LPS used to induce endotoxic shock is 10-fold higher than that used in the present study.

hippocampal neurogenesis = assay: LPS-induced transient illness, microglia and hippocampal neurogenesis in mice; format: in vivo, mouse
Description: To investigate whether an LPS challenge produces more chronic effects on neurogenesis, adult female C57BI/6 mice were injected intraperitoneally (i.p.) with 0, 5, 7.5 and 10 mg/kg of LPS and subcutaneously with sterile saline to prevent dehydration. Mice were then injected once daily over the next 6 days with the cell synthesis marker bromodeoxyuridine (BrdU; 50 mg/kg) to label dividing progenitor cells. Histology was performed on sections from mice that were perfused on Day 7 or Day 28. The number of BrdU-labeled (new) or IBA-1-labeled (monocyte/microglial) cells was estimated through hippocampal sets stereologically using enzyme substrate immunohistochemistry and light microscopy and BrdU-labeled cell phenotypes and IBA-1-labeled activation was determined using immunofluorescence and confocal microscopy.
Subjects. All mice used as subjects in this study were treated in accordance with the policies set forth by the Stanford Animal Care and Use Committee and NIH regarding the ethical use of animals for experimentation. CB57BI/6 mice (7 wks old upon arrival from -Taconic) were housed in groups of 4-5 in autoclaved shoebox cages under standard conditions and were given free access to autoclaved Prolab Mouse 3000 chow (PMI Nutrition International, St. Louis, Mo.) and autoclaved tap water. One week after arrival, vehicle- and NSAID-treated mice were given an intraperitoneal (i.p.) injection of sterile saline or lipopolysaccharide (LPS; 5 mg/kg at a concentration of 1 mg/ml isotonic saline; Sigma Aldrich, St. Louis, Mo.) to induce transient illness (Day 0) and daily subcutaneous (s.c.) isotonic saline (0.5 ml) injections (Days 0-3) to prevent illness-induced dehydration. The cell synthesis marker bromodeoxyuridine (BrdU; Sigma Aldrich, St. Louis, Mo.) was injected i.p. (50 mg/kg at a concentration of 10 mg/ml in freshly prepared isotonic saline) once per day for 6 days to label dividing cells, beginning Day 0 (2 h after LPS). The mice were anesthetized with ketamine/xylazine and killed at Days 7 or 28 (to assess hippocampal neurogenesis during illness and just before behavioral testing, respectively) or Day 80 (to measure hippocampal neurogenesis following behavioural testing) by perfusion with 4% paraformaldehyde. Brains were post-fixed overnight in perfusate, microtome sectioned at 40 μm through the hippocampus and stored in tissue cryoprotectant solution at −20° C. until processed immunohistochemically.
Histology and Immunohistochemistry. Free floating sections were immunostained as described previously using the following primary antibodies and working concentrations: rat anti-bromodeoxyuridine (1:500; Accurate, Westbury, N.J.) goat anti-doublecortin (1:500; Santa Cruz, Calif.), rabbit anti-[…] (1:2000; WAKO, Los Angeles, Calif.), rabbit anti-FA-11 (CD68; 1:200; Serotec, Raleigh, N.C.), guinea pig anti-GFAP (1:750; Harlan, Indianapolis, Ind.), rabbit anti-NG2 (1:2000; a gift from W. Stallcup), mouse anti-NeuN (1:500; Chemicon; Temeculah, Calif.). Tissue was incubated in all primary antibodies ovemight (and in anti-BrdU for 48 h) at 4° C. Phenotyping sets were incubated in minimally cross-reactive secondary IGg conjugated fluorophores (1:500; Jackson Immunoresearch, West Grove, Pa.) overnight at 4° C. and coverslipped under PVA-DABCO.
Cell Counting and Unbiased Stereology. BrdU-labeled cells were phenotyped and total BrdU-labeled and […] cell numbers stereologically estimated if they were located in the hippocampal granule cell layer proper and subgranular zone (the neurogenic zone that includes a 50 μm border between the hilus and granule cell layer). BrdU-labeled cells were phenotyped on immunofluroescent stained sections that were anatomically matched using a Zeiss 510 Meta confocal microscope using a multi-channel configuration with a 40× objective and electronic zoom of 2.3. Appropriate gain and black level was set using control sections stained with secondary antibodies alone. […]

[2] = dentate gyri, 4 weeks after LPS

Substance: lipopolysaccharide [LPS]
- duration of mild sickness behavior [1]: approximately 2 days
- reduction in the net number of new neurons (hippocampal neurogenesis; 4 weeks after LPS challenge): 45-55%
- reduction of BrdU positive cells colabeled with NeuN (hippocampal neurogenesis; 4 weeks after LPS challenge): ≈ 57%
- reduction of BrdU-positive cells colabeled with DCX/NeuN (hippocampal neurogenesis; 4 weeks after LPS challenge): ≈ 44%
- total number of BrdU positive cells vs vehicle (hippocampal neurogenesis; 6 and 28 d after injection): similar
- activation (FA-11/CD68) intensity on IBA-1 positive cells vs vehicle (hippocampal neurogenesis; [2]): 1.25 fold
- total IBA-1 positive cell number vs vehicle (hippocampal neurogenesis; [2]): similar
- reduction of BrdU positive cells colabeled with DCX/NeuN (hippocampal neurogenesis; week following LPS challenge, independent of LPS dose): ≈ 41%
